The target in one assay is T1, KPC-2 D179Y (Klebsiella pneumoniae, UniProt Q9F663, D178Y).
T1 construct: 6xHis (C); made in house; host or cells: E. coli BL21(DE3) pLys, pET28a
Conditions: D179Y substitution in KPC-2; cited from earlier work.

A further assay deals with T2, KPC-2 (Klebsiella pneumoniae, UniProt Q9F663).
T2 construct: 6xHis (C); made in house; host or cells: E. coli BL21(DE3) pLys, pET28a
Briefly: Inactivation kinetics (k2/K, k−2, Kd), nitrocefin reporter substrate method. In kind it is biochemical. To be noted: NCF hydrolysis, 37°C. How it is done: Inactivation kinetic parameters were determined by reporter substrate method for the slow tight binding inhibitor kinetic scheme ([45]). Protein was quickly mixed with 100 μM nitrocefin and various concentrations of BLI in reaction buffer, and absorbance at 490 nm was measured immediately every 2 s for 600 s on a SpectraMax plate reader (Molecular Devices, San Jose, CA) at 37°C. Resulting progression curves of OD490 versus time at various BLI concentrations were imported into Prism software (GraphPad, San Diego, CA), and pseudo-first-order rate constants (kobs) were calculated using the following equation: P=Vs×(1-e^-kobs^×^t)/kobs where Vs is enzyme nitrocefin cleavage rate in the absence of BLI. kobs values calculated at various vaborbactam concentrations were fitted in the following equation: kobs=k−2+k2/K×[I]/{1+[NCF]/Km(NCF)} where k2/K is the inactivation constant, [I] is inhibitor concentration, [NCF] is nitrocefin concentration, and Km(NCF) is the Michaelis constant of nitrocefin for KPC-2.

The test system of assay [1] is P. aeruginosa PAM1154 carrying pUCP24 vector (PAM4175). Put plainly: MIC, CLSI broth microdilution. Format: cell-based. To be noted: Pseudomonas aeruginosa, drug alone. An excerpt: The effects of KPC mutations on resistance to various antibiotics were investigated. For these studies, pUCP24 plasmids carrying wild-type and mutant blaKPC-2 genes as well as the pUCP24 vector were transformed into PAM1154, an efflux-deficient strain of Pseudomonas aeruginosa. In this host, the effect of β-lactamases on β-lactam MIC is amplified due to the slowed uptake of β-lactams across the low-permeability outer membrane without interference by efflux of either β-lactams or BLIs. Consequently, this host allows detection of β-lactamase activity (as an MIC increase) of low-catalytic-efficiency enzymes that rely heavily on the low permeability of the outer membrane. Using the strain that lacks efflux pumps ensures no interference from efflux in interpreting results. We next evaluated the steady-state protein expression levels in bacterial cells. […] The observed discrepancy with our results could be attributed to the difference in either the expression vector or host bacteria.
(§1) For microbiological studies, wild-type blaKPC-2 and its mutant variants were cloned into the shuttle vector pUCP24. Resulting plasmids were transformed in the efflux-deficient strain of P. aeruginosa PAM1154 using selection on 15 μg/ml of gentamicin. Using a strain of P. aeruginosa as opposed to E. coli as a host for various cloned genes was based on the following consideration. As well documented elsewhere ([41]), P. aeruginosa has a low-permeability outer membrane; consequently, the effect of β-lactamases on MIC is amplified in P. aeruginosa compared to that in E. coli due to the slowed uptake of β-lactams. Thus, this host is appropriate to detect β-lactamase activity (as an MIC increase) of low-catalytic-efficiency enzymes that rely heavily on low permeability of the outer membrane. […] MICs were determined using the Clinical and Laboratory Standards Institute (CLSI) broth microdilution method as described in CLSI document M07-A11 ([42]). Potentiation of antibiotic activity by various BLIs in bacterial strains carrying wild-type (WT) and mutant KPC-2 genes was performed using standard checkerboard methodology ([43]). BLI potency was defined as PV50 (PV, potentiation value). PV50 is the minimal concentration of a BLI that is required to reduce the antibiotic MIC to the middle of the MIC range (E50) where the highest MIC is the MIC for a KPC-producing strain with no inhibitor added and the lowest MIC is the MIC for the vector-only strain, corresponding to the complete inhibition of KPC. E50 is calculated as the square root of the product of the antibiotic MICs for the KPC-producing and the vector-only strains.

For assay [2], the system named is P. aeruginosa PAM1154 carrying wild-type KPC-2 (PAM4135). Briefly: Checkerboard potentiation of antibiotic activity by BLIs. Format: cell-based, Pseudomonas aeruginosa. Conditions: PAM4135 KPC-2.
Description: (§2) BLI potency was defined as PV50 (PV, potentiation value) of antibiotic potentiation. PV50 is the concentration of a BLI that is required to reduce the antibiotic MIC to the middle of the MIC range where the highest MIC is the MIC for a KPC-producing strain with no inhibitor added and the lowest MIC is the MIC for the vector-alone strain, which corresponds to complete inhibition of KPC. As a given MIC is directly related to the β-lactamase activity, PV50 might be considered the concentration of a BLI that is required to achieve half-effect of inhibition of β-lactamase activity (in whole cells) to hydrolyze an antibiotic of interest. […] However, the accurate determination of PV50 requires the MIC range to be relatively wide.
as §1, with “Potentiation of antibiotic activity by various BLIs in bacterial strains carrying wild-type (WT) and mutant KPC-2 genes was performed using standard checkerboard methodology ([43]).” left out
(§3) […]
(§4) […]

Assay [3] relates to P. aeruginosa PAM1154 carrying KPC-2::D179Y (PAM4639). The description is as above. In kind it is cell-based, Pseudomonas aeruginosa. To be noted: for increase of PV50 vs wild-type KPC-2: D179Y; for PV50: PAM4639 KPC-2::D179Y.
Description: as §2
as §1, with “Potentiation of antibiotic activity by various BLIs in bacterial strains carrying wild-type (WT) and mutant KPC-2 genes was performed using standard checkerboard methodology ([43]).” left out
as §3, §4

For assay [4], the system named is P. aeruginosa PAM1154 carrying KPC-2::L169P (PAM4751). Described as above. To be noted: for PV50: PAM4751 KPC-2::L169P. Format: cell-based, Pseudomonas aeruginosa.
Description: as §2
as §1, with “Potentiation of antibiotic activity by various BLIs in bacterial strains carrying wild-type (WT) and mutant KPC-2 genes was performed using standard checkerboard methodology ([43]).” left out
as §3, §4

Results on one compound are retold here after PMC7179312 (Antimicrobial Agents and Chemotherapy, 2020).

The term MIC denotes the smallest concentration in the dilution series that meets the test's criterion for growth inhibition.

Molecules are shown by their SMILES.

T1 sequence (Q9F663 25-293 D178Y): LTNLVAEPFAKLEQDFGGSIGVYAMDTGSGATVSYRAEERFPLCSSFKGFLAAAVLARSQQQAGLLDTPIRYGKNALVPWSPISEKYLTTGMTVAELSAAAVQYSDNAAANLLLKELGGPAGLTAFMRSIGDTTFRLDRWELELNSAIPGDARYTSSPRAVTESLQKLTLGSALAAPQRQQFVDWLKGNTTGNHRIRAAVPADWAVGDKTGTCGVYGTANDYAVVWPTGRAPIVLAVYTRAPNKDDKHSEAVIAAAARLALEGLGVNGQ
T2 sequence (Q9F663 25-293 limits assumed): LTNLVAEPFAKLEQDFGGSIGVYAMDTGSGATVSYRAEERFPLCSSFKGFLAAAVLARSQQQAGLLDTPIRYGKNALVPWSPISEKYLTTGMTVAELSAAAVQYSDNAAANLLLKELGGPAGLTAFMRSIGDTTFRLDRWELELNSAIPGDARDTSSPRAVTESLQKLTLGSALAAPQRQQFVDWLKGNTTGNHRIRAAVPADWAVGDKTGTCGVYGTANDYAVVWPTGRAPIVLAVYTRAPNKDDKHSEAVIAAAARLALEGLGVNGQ

In the case of `NC(=O)[C@@H]1CC[C@@H]2CN1C(=O)N2OS(=O)(=O)O` [Avibactam, avibactam], the “decrease in the inactivation constant k2/K” value on KPC-2 D179Y is listed as 70,000 fold. Also, the “k−2” value at KPC-2 is 3.3 ± 0.1 × 10^−4 s^−1. Further, the minimal inhibitory concentration (MIC) in assay [1] came out at 128 mg/L. Further, the PV50 was found to be 0.25 µg/mL in assay [2] (potentiation of cefepime); 0.125 µg/mL in assay [2] (potentiation of ceftazidime); 4 µg/mL in assay [3] (potentiation of cefepime); 4 µg/mL in assay [3] (potentiation of ceftazidime); 1 µg/mL in assay [3] (potentiation of piperacillin); 1 µg/mL in assay [4] (potentiation of cefepime). In addition, the PV50 in assay [4] (potentiation of ceftazidime) and in assay [4] (potentiation of piperacillin) was 2 µg/mL throughout. Moreover, the “increase of PV50 vs wild-type KPC-2” value is 16 fold in assay [3] (cefepime); 32 fold in assay [3] (ceftazidime); 4 fold in assay [3] (piperacillin); 4 fold in assay [4] (L169P, cefepime).
